According to paper PMC9071444 (Nucleic Acids Research, 2022):
Entries after “also recorded” stand apart in the source; their conditions may differ. Read-outs that look alike come from different tables or passages of the source.

Experiments:
[1] = test system: SuperScript IV reverse transcriptase; type: biochemical
[2] = test system: Japanese encephalitis virus RdRp; type: biochemical
[3] = test system: RNA G4 derived from the Nipah virus and ZIKV genomes; settings: cited from earlier work
[4] = test system: PS cells
[5] = test system: TBEV-5; type: binding, tick-borne encephalitis virus
[6] = test system: TBEV-5; type: binding, tick-borne encephalitis virus; remark: listed apart in the source
[7] = test system: TBEV-5; type: binding, tick-borne encephalitis virus; remark: listed apart in the source
[8] = test system: TBEV-5; type: binding, tick-borne encephalitis virus; remark: listed apart in the source
[9] = test system: TBEV strain Hypr; test: microbe, parasite or virus in culture; settings: Tick-borne encephalitis virus, 48 h
[10] = test system: TBEV strain Neudoerfl
[11] = test system: TBEV strain Hypr
[12] = test system: TBEV strain Neudoerfl; test: microbe, parasite or virus in culture; settings: Tick-borne encephalitis virus, 48 h
[13] = in vitro; settings: pig
[14] = test system: TBEV strains Neudoerfl and Hypr; test: microbe, parasite or virus in culture; type: cell-based, tick-borne encephalitis virus; settings: for EC50: read-out: EC50
[15] = test system: ZIKV virus; settings: 100 μM; cited from earlier work
[16] = test system: SuperScript IV reverse transcriptase; type: biochemical; remark: listed apart in the source
[17] = test system: TBEV strain Neudoerfl; type: cell-based, tick-borne encephalitis virus
[18] = test system: TBEV strain Hypr; type: cell-based, tick-borne encephalitis virus
[19] = test system: TBEV strain Hypr; type: cell-based, tick-borne encephalitis virus; remark: listed apart in the source
[20] = test system: Viral genome RNA from the TBEV strain Hypr; type: cell-based, tick-borne encephalitis virus
[21] = test system: TBEV strains Neudoerfl and Hypr; type: cell-based, tick-borne encephalitis virus
[22] = test system: ZIKV NS2B-NS3 protease; settings: cited from earlier work
[23] = test system: ZIKV; settings: cited from earlier work
[24] = test system: HCV RdRp; settings: cited from earlier work
[25] = molecular target: Japanese encephalitis virus RdRp (Japanese encephalitis virus, UniProt P32886); type: biochemical
Chain of Japanese encephalitis virus RdRp (Japanese encephalitis virus, UniProt P32886) (P32886 2528-3432 limits assumed): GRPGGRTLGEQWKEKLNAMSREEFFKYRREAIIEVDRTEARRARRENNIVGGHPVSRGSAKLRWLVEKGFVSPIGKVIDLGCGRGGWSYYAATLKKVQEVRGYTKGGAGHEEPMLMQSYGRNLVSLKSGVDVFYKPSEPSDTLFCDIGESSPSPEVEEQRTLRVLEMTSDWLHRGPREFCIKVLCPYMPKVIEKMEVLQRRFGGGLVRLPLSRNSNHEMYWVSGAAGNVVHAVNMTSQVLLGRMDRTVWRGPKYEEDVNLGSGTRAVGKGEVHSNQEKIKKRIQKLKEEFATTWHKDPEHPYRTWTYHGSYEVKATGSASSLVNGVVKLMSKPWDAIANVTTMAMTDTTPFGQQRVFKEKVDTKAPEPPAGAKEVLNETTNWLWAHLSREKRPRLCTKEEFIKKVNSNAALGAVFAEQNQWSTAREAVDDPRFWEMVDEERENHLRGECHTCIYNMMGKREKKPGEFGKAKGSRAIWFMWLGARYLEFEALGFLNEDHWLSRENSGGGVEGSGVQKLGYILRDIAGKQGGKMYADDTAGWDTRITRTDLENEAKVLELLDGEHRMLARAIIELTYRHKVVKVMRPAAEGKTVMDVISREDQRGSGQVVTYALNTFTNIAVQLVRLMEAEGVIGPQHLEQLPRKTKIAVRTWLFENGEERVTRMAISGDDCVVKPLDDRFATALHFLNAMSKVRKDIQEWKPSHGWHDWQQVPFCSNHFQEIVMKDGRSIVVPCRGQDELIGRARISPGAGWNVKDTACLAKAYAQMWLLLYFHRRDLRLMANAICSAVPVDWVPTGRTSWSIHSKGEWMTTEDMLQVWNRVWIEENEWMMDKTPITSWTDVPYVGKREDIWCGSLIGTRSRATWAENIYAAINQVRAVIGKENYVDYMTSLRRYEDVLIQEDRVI

[26] = Tick-borne encephalitis virus, 48 h

Molecule	RdRp activity relative to no-ligand control [2] [%]	CC50 [4] [µM]	Increase in Tm of TBEV-5 G4 [6]	G4 specificity of binding (titration curves with TBEV-5 versus TBEV-5mut) [8]	SI (CC50/EC50) [10]	SI (CC50/EC50) [11]	EC50 [10] [µM]	EC50 [11] [µM]	Inhibition of RT [16]	Phase of the viral replication cycle in which the antiviral action takes effect [19]	Course of anti-TBEV activity over time [14]	further results
5,10,15,20-tetrakis-(N-methyl-4-pyridyl)porphine [TMPyP4]	< 10	> 50	strong distortion of melting curves	bind non-specifically								Full product of reverse transcription relative to no-ligand control [1]: inhibits reverse transcriptase; Interaction with RNA G4 [3]: specifically interact; Displacement of the probe (TO or ThT) [5]: ~100%; Change of CD at 263 nm of TBEV-5 [7]: most pronounced; Binding of TBEV-5 (concentration for 50% TBEV-5 saturation) [8]: best binder
O=C1c2cccc(O)c2C(=O)c2c(O)cc(CO)cc21 [Aloe emodin, aloe-emodin]			strong distortion of melting curves		>1	>1						EC50 [9]: > 50 µM; Displacement of ThT [5]: did not significantly displace; EC50 [12]: > 50 µM; CC50 [13]: > 50 µM; Virus inhibition in initial screening [14]: no virus inhibition effects
CN(C)c1ccc(Nc2c3ccc(NC(=O)CCN4CCCC4)cc3nc3cc(NC(=O)CCN4CCCC4)ccc23)cc1 [BRACO-19]		> 50	strong distortion of melting curves		>1	>1	> 50	> 50				Effect on ZIKV virus titers [15]: decrease ZIKV virus titers; Interaction with RNA G4 [3]: specifically interact; Virus inhibition in initial screening [14]: no virus inhibition effects
COc1ccc2cc3[n+](cc2c1OC)CCc1cc2c(cc1-3)OCO2 [Berberin, berberine]			up to 3.5 °C	specifically bind G4					did not inhibit RT	post-entry/fusion phase	stable over time	Full product of reverse transcription relative to no-ligand control [1]: does not inhibit RT; EC50 [9]: 1.57 µM; Reduction of numbers of viral RNA copies [17]: ~25%; Reduction of numbers of viral RNA copies [18]: about 40%; Displacement of TO [5]: did not displace; Displacement of ThT [5]: around 50%; EC50 [12]: 1.26 µM; CC50 [13]: > 50 µM; EC50 [14, 26]: 1.2 to 2.9 µM; Suppression of infectious viral particle formation [20]: partial
CN(C)c1ccc(C(=C2C=CC(=[N+](C)C)C=C2)c2ccc(N(C)C)cc2)cc1 [CV, crystal violet]												CC50 ([4]; pig): < 1.6 µM
Cc1cnc(CNC(=O)c2c(=O)c3ccc(N4CCCN(C)CC4)nc3n3c2sc2ccccc23)cn1 [CX5461]												Antiviral effect at the lowest non-cytotoxic concentration [10]: ^eNo antiviral effect was observed at the lowest non-cytotoxic concentration of 5 μM.; Antiviral effect at the lowest non-cytotoxic concentration [11]: ^eNo antiviral effect was observed at the lowest non-cytotoxic concentration of 5 μM.; CC50 ([4]; pig): 14.1 µM
CCC1=C(C)c2cc3[nH]c(cc4nc(cc5c(CCC(=O)O)c(C)c(cc1n2)n5C)C(CCC(=O)O)=C4C)c(C)c3CC [NMM, N-Methylmesoporphyrin IX]		> 50	up to 3.5 °C	specifically bind G4	>5000	>2 500	0.01	0.02	did not inhibit RT	prior to the entry/fusion steps	stable over time	Full product of reverse transcription relative to no-ligand control [1]: inhibits reverse transcriptase; Effect on viral RNA copies [21]: complete inhibition of RNA synthesis; Cell morphology and monolayer cohesion [4]: observable changes in cell morphology and in mechanical monolayer cohesion; Concentration that completely suppressed TBEV replication [14]: 1.6 µM; Viable viral particle formation [20]: no viable viral particle formation
NCCOc1cc(C(=O)Nc2cc(OCCN)c3ccccc3n2)nc(C(=O)Nc2cc(OCCN)c3ccccc3n2)c1 [PDS, Pyridostatin]	< 10								strong inhibitory effect	post-entry/fusion phase	stable over time	Effect on ZIKV NS2B-NS3 protease [22]: reduces its catalytic activity; EC50 [9]: 1.29 µM; Phase of ZIKV cycle affected [23]: replication period rather than entry; EC50 [12]: 2.94 µM; CC50 [13]: > 50 µM; EC50 [14, 26]: 1.2 to 2.9 µM; Suppression of infectious viral particle formation [20]: partial; also recorded: complete
C[n+]1cc(NC(=O)c2ccc3ccc4ccc(C(=O)Nc5cc6ccccc6[n+](C)c5)nc4c3n2)cc2ccccc21 [PhenDC3]	< 10	> 50	strong distortion of melting curves		>8.66	>8.08	5.77	5.68	strong inhibitory effect	post-entry/fusion phase	gradually disappeared or dropped significantly	Effect on HCV RdRp [24]: no significant effect; Inhibition of RdRp activity [25]: almost completely inhibits; Displacement of the probe (TO or ThT) [5]: ~100%; EC50 [14]: ~5 µM; Change of CD at 263 nm of TBEV-5 [7]: most pronounced
CN1C(=Cc2cc[n+](C)c3ccccc23)Sc2ccccc21 [TO, thiazole orange]		1.8	strong distortion of melting curves	bind non-specifically								Displacement of ThT [5]: almost entirely displaces; Change of CD at 263 nm of TBEV-5 [7]: most pronounced
Cc1ccc2c(c1)sc(-c1ccc(N(C)C)cc1)[n+]2C [ThT, thioflavin T]			up to 3.5 °C	specifically bind G4								Antiviral effect at the lowest non-cytotoxic concentration [10]: ^eNo antiviral effect was observed at the lowest non-cytotoxic concentration of 5 μM.; Antiviral effect at the lowest non-cytotoxic concentration [11]: ^eNo antiviral effect was observed at the lowest non-cytotoxic concentration of 5 μM.; CC50 ([4]; pig): 10.6 µM; Displacement of TO [5]: does not displace
NCCOc1cc(NC(=O)c2cc(OCc3cn(CCC(=O)O)nn3)cc(C(=O)Nc3cc(OCCN)c4ccccc4n3)n2)nc2ccccc12 [cPDS, Carboxy pyridostatin]	< 10	> 50	strong distortion of melting curves		>11.23	>9.05	4.45	5.52		post-entry/fusion phase	gradually disappeared or dropped significantly	EC50 [14]: ~5 µM
